Assay results from patent US20200054539A1, “METHOD FOR REMOVING KERATOTIC PLUGS” (KAO CORPORATION, priority 2017, published 2020).

What was measured:
[1] = Detergency against keratotic plugs after washing with water; design: species or system human; settings: keratotic plugs kept in contact with water for 1 minute after the sample
Excerpt: (§1) The penetration was relatively evaluated by 11 criteria from the state 1 “the sample hardly penetrated into the keratotic plug” to the state 11 “the sample penetrated to the center of the keratotic plug”. The collapsibility by the detergency against keratotic plugs was relatively evaluated by 11 criteria from the state 1 “almost no change is observed in the external appearance of the keratotic plug” to the state 11 “peeling or separation is observed in the area from the surface layer to the central portion of the keratotic plug (the initial appearance of the keratotic plug is not retained)”.
2. Evaluation of Detergency Against Keratotic Plugs after Washing with Water
After one minute from the contact of the keratotic plugs with the sample, KimWipes (registered trademark) was brought into contact with an edge of the cover glass to remove the sample under the cover glass. Subsequently, 0.05 mL of water was dropwise added to an edge of the cover glass. The sample dropwise added with water was recorded with the digital microscope, and the collapse state of the keratotic plugs was evaluated after one minute from the contact of the keratotic plugs with water according to the criteria for evaluating collapsibility of the keratotic plugs. The results of the evaluation are shown in the column “Detergency against keratotic plugs (after washing with water)” in Table. The measurements were performed at 25° C.

[2] = Detergency against keratotic plugs: penetration of the sample into the keratotic plugs; design: species or system human; settings: keratotic plugs kept in contact with a sample for 1 minute; Table 1 samples
Procedure: (§2) 1. Evaluation of Detergency Against Keratotic Plugs During Cleansing
(§3) Keratotic plugs in the nasal region were removed with “Biore Nose Pack (manufactured by Kao Corporation)”, the resulting keratotic plugs on the pack were gently taken out with tweezers.
(§4) The resulting keratotic plugs were placed on a slide glass and were covered with a cover glass, and 0.05 mL of a sample was dropwise added to an edge of the cover glass. Consequently, the sample enters into the gap between the slide glass and the cover glass by capillary phenomenon and is brought into contact with the keratotic plugs. The contact of the keratotic plugs with the sample was recorded with a digital microscope (VHX-5000, manufactured by Keyence Corporation, magnification: x150), and the penetration of the sample into the keratotic plugs and the collapse state of the keratotic plugs were evaluated after one minute from the contact of the keratotic plugs with the sample. The results of each evaluation are shown in the columns “Detergency against keratotic plugs (penetration)” and “Detergency against keratotic plugs (during cleansing)” in Tables. The measurements were performed at 25° C.
as §1

[3] = Detergency against keratotic plugs during cleansing: collapse state of the keratotic plugs; design: species or system human; settings: keratotic plugs kept in contact with a sample for 1 minute; Table 1 samples
Procedure: as §2, §3, §4, §1

[4] = tested on: insoluble protein (zein protein); assay: Evaluation of effect of suppressing protein aggregation; settings: Table 1 sample
Procedure: <<Evaluation of Effect of Suppressing Protein Aggregation>>
Thirty milliliters of a sample and 0.06 g of an insoluble protein (zein protein) were placed in a 35-mL standard glass bottle, and the concentration of the insoluble protein was adjusted to 0.2 mass % (test sample). Separately, a standard sample was prepared by using water instead of the sample and adjusting the concentration of the insoluble protein to 0.2 mass %. Subsequently, the standard glass bottles were sufficiently shaken and stirred up and down (shake width: 15 cm, 20 times at a rate of 5 times for 3 seconds) in a thermostatic chamber of 25° C. and were left to stand per 3 minutes. The precipitation state of the insoluble protein was then visually verified, and the ratio of the amount of the precipitated standard sample to the amount of the precipitated test sample (the height of the precipitate in each standard glass bottle was measured as the precipitation amount), (precipitation amount of standard sample)/(precipitation amount of test sample), was calculated. A higher ratio indicates a higher effect of suppressing protein aggregation.

In the case of `O=P([O-])([O-])O.[Na+].[Na+]` [disodium hydrogen phosphate], the “collapse of the keratotic plugs on contact with water (in words)” value (“collapse … with water (in words)” below) [1] is reported as “the collapse of the keratotic plugs did not progress”, the “penetration into keratotic plugs (in words)” value [2] is reported as “hardly penetrated into keratotic plugs” and the “collapse of the keratotic plugs in contact with the sample (in words)” value (shortened to “collapse … with the sample (in words)”) [3] is reported as “the collapse of the keratotic plugs did not progress”.
With “sodium polyoxyethylene (2) lauryl ether sulfate [POE (2) sodium lauryl sulfate]” the “action on proteins (in words)” value [4] was “the action on proteins was strong to dissolve the proteins”, the “penetration into keratotic plugs (in words)” value [2] was “hardly penetrated into the keratotic plugs” and the “collapse … with the sample (in words)” value [3] was “the collapse of the keratotic plugs did not progress”.
With `N=C(N)NCCC[C@H](N)C(=O)O` [Arginine] the “collapse … with water (in words)” value [1] was “further swelled to cause a phenomenon of accelerating the collapse of the keratotic plugs” and the “penetration into keratotic plugs (in words)” value [2] was “penetrated into keratotic plugs”.
In the case of `O=P([O-])([O-])[O-].[Na+].[Na+].[Na+]` [trisodium phosphate], the “collapse … with water (in words)” value [1] is reported as “the collapse of the keratotic plugs did not progress”, the “penetration into keratotic plugs (in words)” value [2] is reported as “hardly penetrated into keratotic plugs” and the “collapse … with the sample (in words)” value [3] is reported as “the collapse of the keratotic plugs did not progress”.
For `O=C([O-])O.[Na+]` [sodium hydrogen carbonate], the “collapse … with water (in words)” value [1] was “the collapse of the keratotic plugs did not progress”, the “penetration into keratotic plugs (in words)” value [2] was “hardly penetrated into keratotic plugs” and the “collapse … with the sample (in words)” value [3] was “the collapse of the keratotic plugs did not progress”.
